# Measurements: US12550898B2, “Herbicide combinations comprising glufosinate and carfentrazone-ethyl” (BASF SE, priority 2020, dated 2026)
# What was measured:
# Chenopodium album = test: Greenhouse post-emergence herbicidal activity on Chenopodium album; format: in vivo; details: 0.654 g ai/ha
# Text: (§1) For the post-emergence treatment, the test plants were first grown to 3 to 4 inch (7.6 to 10.2 cm) tall, and only then treated. Here, the herbicidal compositions were suspended or emulsified in water as distribution medium and sprayed using finely distributing nozzles.
# (§2) The herbicide compounds applied in the examples were used as commercially available formulations which have been diluted with deionized water to a suitable concentration.
# (§3) Carfentrazone (commercial product name: Aim) was used as an emulsifiable concentrate having an active ingredient concentration of 240 g/l. Glufosinate (commercial product name: Liberty) was used as an aqueous soluble liquid of glufosinate ammonium having an active ingredient concentration of 280 g/l. Adjuvants of ammonium sulfate (AMS) and non-ionic surfactant (NIS) were added in all treatments. AMS and NIS were AMS Liquid and Induce at rates of 1680 g/ha and 0.25% (v/v), respectively.
# (§4) The test period extended over 28 days after treatment (DAT). During this time, the plants were tended and their response to the individual treatments was evaluated.
# (§5) The evaluation for the damage caused by the chemical compositions was carried out using a scale from 0 to 100%, compared to the untreated control plants. Here, 0 means no damage and 100 means complete destruction of the plants.
# (§6) The plants used in the greenhouse experiments belonged to the following species:
# (§7) 22 ff. E=X+Y−(X·Y/100) • where X=effect in percent using carfentrazone at an application rate a; • Y=effect in percent using glufosinate at application rate b; • E=expected effect (in %) of carfentrazone plus glufosinate at application rates a+b.
# (§8) The value E corresponds to the effect (plant damage or injury) which is to be expected if the activity of the individual compounds is just additive. If the observed effect is higher than the value E calculated according to Colby, a synergistic effect is present.
# Echinochloa crus-galli = test: Greenhouse post-emergence herbicidal activity on Echinochloa crus-galli; format: in vivo; details: 0.654 g ai/ha, scale 0-100, AMS + NIS added
# Text: as §1, §2, §3, §4, §5, §6, §7, §8
smiles,measurement,setting,value
"CCOC(=O)C(Cl)Cc1cc(-n2nc(C)n(C(F)F)c2=O)c(F)cc1Cl (stereo not drawn) [Carfentrazone, carfentrazone-ethyl]",Solo Carfentrazone % activity,"Chenopodium album; 7 DAT, scale 0 (no damage) to 100 (complete destruction), AMS + NIS added",30%
same,Solo Carfentrazone % activity,"Chenopodium album; 14 DAT, scale 0-100, AMS + NIS added",30%
same,Solo Carfentrazone % activity,"Chenopodium album; 21 DAT, scale 0-100, AMS + NIS added",35%
same,Solo Carfentrazone % activity,Echinochloa crus-galli; 7 DAT,30%
same,Solo Carfentrazone % activity,Echinochloa crus-galli; 14 DAT,18%
same,Solo Carfentrazone % activity,Echinochloa crus-galli; 21 DAT,25%
